Measured values from patent US7943660B2, “Inhibitors of the LFA-1/ICAM-1 interaction and uses thereof” (Dominion Pharmakine S.L., priority 2005, dated 2011).

Key:
[1] = tested on: Co26 murine colon carcinoma (Co26-CC) cell adhesion to HSE cells; experiment: Co26 colon carcinoma cell adhesion to HSE cells; assay type: cell-based; details: FIG. 6B
Procedure: Time-dependent adhesion assays was carried out on a quantitative basis according to previous validated bioassays (Vidal-Vanaclocha et al., Cancer Research, 1994, 54(10):2667-72). For tumor cell pre-labelling, they were allowed to accumulate the non-fluorescent sterase substrate BCECF-AM and to hydrolyze it to its fluorescent product BCECF which becomes trapped inside living cells. To do this, 50 μg of BCECF-AM were diluted in dry DMSO (5 μl) and DME medium until […] (40 μg/ml).
Tumor cells (5×10^6) were incubated in BCECF-AM solution at 37° C. for 30 min. After gently washing, tumor cells were resuspended in fresh medium (DMEM without phenol red) at a concentration of 2×10^6 cells/ml.
Twenty-four hours post-plating, primary cultured hepatic sinusoidal endothelial (HSE) cells were also used for adhesion assay. To determine the basal autofluorescence per well, plates were read on a fluorometric microplate reader (Multiskan Ascent, Thermo Labsystems) using 485/22 nm excitation and the 530/25 nm emission filter. Then, 2×10^5 labeled tumor cells were added to each well of HSE cells and to collagen pre-coated control wells.
However, in order to determine the exact number of cells in each well, co-culture plates were read for a second time. Then, plates were incubated at 37° C. […]

[2] = tested on: Human peripheral blood lymphocyte (PBL) adhesion to immobilized human recombinant ICAM-1; experiment: Human PBL adhesion assay to immobilized recombinant human ICAM-1; assay type: cell-based; details: PBLs 100 ng/ml PMA 30 min, then HC0303 20 μg/5×10^5 cells for 30 min; FIG. 7; P<0.01
Procedure: Ninety six-well plates were coated with 2 μg/ml recombinant human ICAM-1 (R&D Systems, Minneapolis, Minn.) at 4° C. overnight. Nonspecific binding sites on plastic were blocked by treating the wells with 100 μl of PBS containing 0.5% BSA for 2 h at room temperature. Isolated human PBLs were incubated with either basal medium or 100 ng/ml PMA for 30 min. Then, PBLs were BCECF-AM-labeled and after washing, the compound HC0303 (20 μg/5×10^5 cells) was added for 30 min.
For adhesion assay, PBLs (5×10^4 per well) were added to quadruplicate wells. Then, plates were incubated for 1 hour at 37° C. before unattached cells were removed by washing three times with fresh medium. The number of adhering cells was determined using the same quantitative fluorescence measurement system as above described.
That this anti-adhesive effect of compound HC0303 is due to LFA-1/ICAM-1 interaction blockade was further confirmed along a lymphocyte adhesion assay to immobilized ICAM-1 substrate. Cultured PBLs were incubated with either basal medium or 100 ng/ml PMA for 30 min. Then, PBLs were BCECF-AM-labeled and after washing, compound HC0303 (20 μg/5×10^5 cells) was added for 30 minutes prior to the adhesion assay to a ICAM-1-coated plate. […] The results are the mean ±SD of three separate experiments, each in sextuplicate (n=18). […]

[3] = tested on: VEGF production by B16M cells; experiment: Measurement of VEGF production by B16M cells in response to soluble ICAM-1 and H2O2 (ELISA); assay type: cell-based, murine; details: 10 μg/ml HC0303 30 min prior to 200 ng/ml sICAM-1, then DMEM or 10 μM H2O2 for 2 hours; FIG. 8; P<0.01
Procedure: Cultured B16M cells were incubated for 30 min with 200 ng/ml soluble ICAM-1 prior to either basal medium (DMEM) or 10 μM H2O2. Some cells were pre-incubated with 1 μg/ml anti-murine LFA-1 monoclonal antibody or 10 μg/ml compound HC0303 for 30 min before ICAM-1 addition. After 2 hours, supernatants were collected, centrifuged at 1,000 g for 10 min and subjected to 0.22 μm filtration.
The addition of either 1 μg/ml anti-murine LFA-1 monoclonal antibody or 10 μg/ml compound HC0303 for 30 minutes prior to sICAM-1 abrogated induced VEGF production (FIG. 8). Data represent the mean ±SD of two separate experiments; differences in VEGF production in treated versus untreated cells (*) and ICAM-1/H2O2-treated cells were statistically significant (P<0.01) by ANOVA and Bonferroni's post-hoc test.

For `CC[C@H](C)C(OCc1ccccc1)[C@@H]1[C@H]([N+](=O)[O-])[C@H](c2ccccc2)N[C@]1(C)C(=O)NCCC(=O)O` (stereo partly drawn) [HC0303, 3-[(2S,3R,4S,5S)-3-[(2S)-1-(Benzyloxy)-2-methylbutyl]-2-methyl-4-nitro-5-phenylpyrrolidine-2-carboxamido]propanoic acid], the “PMA-induced cancer cell adhesion to HSE cells” value ([1]; 100 ng/ml PMA 30 min, then HC0303 20 μg/5×10^5 cells for 30 min, P<0.01) was “significantly decreased”, the “adhesion to untreated HSE cells (no PMA)” value ([1]; HC0303 20 μg/5×10^5 cells for 30 min) was “did not affect” and the “PMA-induced adhesion of PBLs to immobilized human recombinant ICAM-1” value [2] was “significantly decreased”. For the same compound, the “induced VEGF production (sICAM-1 / H2O2)” value [3] was “abrogated”.
